Laboratory results reported in patent publication US20250129086A1, “COMPOUND FOR DEGRADING EGFR PROTEIN AND USE THEREOF” (TYK MEDICINES, INC., priority 2021, published 2025).

Tests used:
Assay type in all cases: cell-based, human
[1] = test system: HCC827 (exon 19 deletion mutation); assay: Cell antiproliferative assay (CTG, 72 h), HCC827; conditions: Homo sapiens, HCC827, 72 h, Table 2, HCC827 cells
How it was run: (§1)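 Cells seeded at 1500-2500 per well, compounds added about 24 h later as a 1:4 gradient from 10,000 nM top concentration in triplicate. After 72 h, viability read by CellTiter-Glo luminescence relative to 0.1% DMSO and blank-medium controls; IC50 from curve fitting.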

[2] = test system: H1975 (EGFR L858R/T790M double mutation); assay: Cell antiproliferative assay (CTG, 72 h), H1975; conditions: Homo sapiens, NCI-H1975, 72 h, Table 2, H1975 cells
How it was run: as §1

[3] = test system: PC-9 (EGFR exon 19 deletion); assay: Cell antiproliferative assay (CTG, 72 h), PC-9; conditions: Homo sapiens, PC-9, 72 h, Table 2, PC-9 cells
How it was run: as §1

| SMILES | IC50 [1] [nM] | IC50 [2] [nM] | IC50 [3] [nM] |
| --- | --- | --- | --- |
| COc1cc(N2CCN(C(=O)CN3CCC(c4ccc(Cn5ccc(=O)[nH]c5=O)cc4)CC3)CC2)ccc1Nc1ncc(Cl)c(Nc2ccccc2C(C)=O)n1 [Compound T-332] | 100 to 1000 | 100 to 1000 | 100 to 1000 |
| COc1cc(N2CCN(C(=O)CN3CCC(c4ccc(CN5CCC(=O)NC5=O)cc4)CC3)CC2)ccc1Nc1ncc(Cl)c(Nc2ccccc2C(C)=O)n1 [Compound T-337] | 100 to 1000 | 100 to 1000 | 100 to 1000 |
| COc1cc(N2CCN(C(=O)CN3CCC(c4ccc(NC5CCC(=O)NC5=O)cc4)CC3)CC2)ccc1Nc1ncc(C(F)(F)F)c(Nc2ccccc2C(=O)NC2CCCC2)n1 (stereo not drawn) [Compound T-343] | 10 to 100 | 10 to 100 | 10 to 100 |
| CNC(=O)c1ccccc1Nc1nc(Nc2cc(C)c(N3CCN(C(=O)CN4CCC(c5ccc(NC6CCC(=O)NC6=O)cc5)CC4)C(C)C3)cc2OC)ncc1Cl (stereo not drawn) [Compound T-355] | 10 to 100 | 10 to 100 | 10 to 100 |
| CNC(=O)c1ccccc1Nc1nc(Nc2cc(C)c(N3CCN(C(=O)CN4CCC(c5ccc(NC6CCC(=O)NC6=O)cc5)CC4)C(C)C3)cc2OC)ncc1Br (stereo not drawn) [Compound T-356] | 10 to 100 | 10 to 100 | 10 to 100 |
| CNC(=O)c1ccccc1Nc1nc(Nc2cc(C)c(N3CCN(C(=O)CN4CCC(c5ccc(NC6CCC(=O)NC6=O)cc5)CC4)C(C)C3)cc2OC)ncc1C(F)(F)F (stereo not drawn) [Compound T-357] | 10 to 100 | 10 to 100 | 10 to 100 |
| CNC(=O)c1ccccc1Nc1nc(Nc2cc(C)c(N3CCN(C(=O)CN4CCC(c5ccc(NC6CCC(=O)NC6=O)cc5)CC4)CC3C)cc2OC)ncc1Br (stereo not drawn) [Compound T-359] | 10 to 100 | 10 to 100 | 10 to 100 |

The remaining lines, values ahead:

| IC50 [1] [nM] | IC50 [2] [nM] | IC50 [3] [nM] | SMILES |
| --- | --- | --- | --- |
| 100 to 1000 | 10 to 100 | 100 to 1000 | COc1cc(N2CCN(C(=O)CN3CCC(c4ccc(NC5CCC(=O)NC5=O)cc4)CC3)CC2)c(C)cc1Nc1ncc(Cl)c(Nc2ccccc2P(C)(C)=O)n1 (stereo not drawn) [Compound T-327] |
| 100 to 1000 | 100 to 1000 | 100 to 1000 | O=C1CCC(Nc2ccc(C3CCN(CC(=O)N4CCN(c5ccc(Nc6ncc(Cl)c(Nc7ccccc7)n6)c(Cl)c5)CC4)CC3)cc2)C(=O)N1 (stereo not drawn) [Compound T-328] |
| 100 to 1000 | 100 to 1000 | 100 to 1000 | CP(C)(=O)c1ccccc1Nc1nc(Nc2ccc(N3CCN(C(=O)CN4CCC(c5ccc(NC6CCC(=O)NC6=O)cc5)CC4)CC3)cc2Cl)ncc1Cl (stereo not drawn) [Compound T-330] |
| ≥ 1000 | 100 to 1000 | 100 to 1000 | COc1cc(C2CCN(C(=O)CN3CCC(c4ccc(NC5CCC(=O)NC5=O)cc4)CC3)CC2)ccc1Nc1ncc(Cl)c(Nc2ccccc2P(C)(C)=O)n1 (stereo not drawn) [Compound T-331] |
| 100 to 1000 | 100 to 1000 | 100 to 1000 | COc1cc(N2CCN(CC(=O)N3CCC(c4ccc(NC5CCC(=O)NC5=O)cc4)CC3)CC2)ccc1Nc1ncc(Cl)c(Nc2ccccc2C(C)=O)n1 (stereo not drawn) [Compound T-338] |
| 100 to 1000 | 100 to 1000 | 100 to 1000 | C=CC(=O)Nc1cc(Nc2ncc(C(F)(F)F)c(Nc3ccccc3)n2)c(OC)cc1N1CCN(C(=O)CN2CCC(c3ccc(NC4CCC(=O)NC4=O)cc3)CC2)CC1 (stereo not drawn) [Compound T-339] |
| 100 to 1000 | 10 to 100 | ≥ 1000 | COc1cc(N2CCN(C(=O)CN3CCC(c4ccc(NC5CCC(=O)NC5=O)cc4)CC3)CC2)ccc1Nc1ncc(Cl)c(Nc2ccccc2C(=O)NC2CCCC2)n1 (stereo not drawn) [Compound T-341] |
| 10 to 100 | 10 to 100 | 100 to 1000 | COc1cc(N2CCN(C(=O)CN3CCC(c4ccc(NC5CCC(=O)NC5=O)cc4)CC3)CC2)ccc1Nc1ncc(Br)c(Nc2ccccc2C(=O)NC2CCCC2)n1 (stereo not drawn) [Compound T-342] |
| 100 to 1000 | 10 to 100 | 100 to 1000 | COc1cc(N2CCC(N(C)C(=O)CN3CCC(c4ccc(NC5CCC(=O)NC5=O)cc4)CC3)CC2)ccc1Nc1ncc(Cl)c(Nc2ccccc2C(C)=O)n1 (stereo not drawn) [Compound T-353] |
